Laboratory results from patent US10961539B2, “Promoter system inducing expression by 3-hydroxypropionic acid and method for biological production of 3-hydroxypropionic acid using same” (NOROO IC Co., Ltd., priority 2015, dated 2021).
“And” between values parts separate entries of the source, which are not always exact repeats. Equal values may be shown once. Read-outs that look alike come from different tables or passages of the source.

Columns and labels:
mmsadh [1] = test: GFP reporter inserted at mmsadh position; format: cell-based, Pseudomonas denitrificans; conditions: w 3-HP 25 mM
Source text: The effect of the O1 and O2 operators on biosynthesis of the C4-LysR protein and the mmsadh expression was examined by using a green fluorescent protein (GFP) as a reporter (Table 2). In Table 2, the effect of the C4-LysR protein and the O1 and O2 operators on the expression of the C4-LysR and the mmsadh. The relative size of the GFP was shown relative to the wild type in the absence of 3-HP. the C4-LysR protein was either not present or was produced by a constitutive promoter, and a plasmid was prepared to control the expression of the GFP upon the existing promoter having the O1 and O2 operators. Then, the experiment was carried out by inserting the prepared plasmid into a host of P. denitrificans from which genes between the C4-LysR and the mmsadh was deleted. Accordingly, the expression of the GFP was suppressed by the C4-LysR protein itself. That is, when the C4-LysR is expressed, the GFP expression was reduced by more than 10-fold. In addition, the expression regulation was also constant regardless of the presence of 3-HP. In this regard, it was confirmed that the transcription of C4-LysR mRNA was negatively regulated by the C4-LysR protein. This experiment was repeated by using a promoter that randomized the O1 and O2 operators to eliminate the symmetrical dyad. As a result, in the case where the O1 or O2 operator site was randomized, the GFP expression was not regulated by the C4-LysR protein, referring that the C4-LysR protein in the P. denitrificans strain was negatively regulated by the strain itself.
Meanwhile, the effect of the O1 and O2 operators on the mmsadh gene expression was examined in a similar manner. That is, the C4-LysR protein was constitutively expressed, and a plasmid was prepared so that GFP can be located after a promoter having O1 and O2 promoters. Here, an O1 or O2 operator was mutated so that the symmetrical dyad of an O1 or O2 site was randomized. As a result, when the O1 or O2 site was mutated, the phenomenon of up-regulation of transcription by 3-HP disappeared. That is, it means that the O1 and O2 operators are all essential sites for up-regulation of the expression by 3-HP.

mmsadh [2] = format: cell-based, microorganisms shown in Table 1
3hibdhIV = test: RT-PCR relative mRNA level of 3-HP catabolic gene
mmsadh [3] = test: RT-PCR relative mRNA level of 3-HP catabolic gene
[4] = cells exposed to 25 mmol/L 3-HP vs no 3-HP, M9 medium, rpoD reference gene
[5] = strain with C4 LysR gene removed

O=C(O)CCO [3-HP, 3-hydroxypropionic acid]
relative size of GFP (relative to wild type in the absence of 3-HP) (mmsadh [1]; O1 & O2 mutation): 3
relative size of GFP (relative to wild type in the absence of 3-HP) (mmsadh [1]; O1 mutation): 3
relative size of GFP (relative to wild type in the absence of 3-HP) (mmsadh [1]; O2 mutation): 3
relative size of GFP (relative to wild type in the absence of 3-HP) (mmsadh [1]; wildtype): 55
relative size of GFP (relative to wild type in the absence of 3-HP) (mmsadh [1]; ΔC4-LysR): 3
Relative mRNA level mmsadh + 3-HP (mmsadh [2]): 5.21 and 5.19
Relative mRNA level mmsadh + 3-HP (mmsadh [2]; Achromobacter denitrificans, + 3-HP): 6.34
Relative mRNA level mmsadh + 3-HP (mmsadh [2]; Acidovorax avenae subsp., + 3-HP): 5.98
Relative mRNA level mmsadh + 3-HP (mmsadh [2]; Acidovorax sp., + 3-HP): 6.04
Relative mRNA level mmsadh + 3-HP (mmsadh [2]; Acinetobacter baumannii, + 3-HP): 5.76
Relative mRNA level mmsadh + 3-HP (mmsadh [2]; Aeromonas hydrophilia, + 3-HP): 6.14
Relative mRNA level mmsadh + 3-HP (mmsadh [2]; Agrobacterium sp., + 3-HP): 6.56
Relative mRNA level mmsadh + 3-HP (mmsadh [2]; Alcaligenes faecalis, + 3-HP): 5.73
Relative mRNA level mmsadh + 3-HP (mmsadh [2]; Alcanivorax hongdengensis, + 3-HP): 6.58
Relative mRNA level mmsadh + 3-HP (mmsadh [2]; Alicychphilus denitrificans, + 3-HP): 6.01
Relative mRNA level mmsadh + 3-HP (mmsadh [2]; Alteromonas marina, + 3-HP): 5.73
Relative mRNA level mmsadh + 3-HP (mmsadh [2]; Amycolatopsis sp., + 3-HP): 6.05
Relative mRNA level mmsadh + 3-HP (mmsadh [2]; Anaeromyxobacter dehalogenans, + 3-HP): 5.44
Relative mRNA level mmsadh + 3-HP (mmsadh [2]; Azospirillum brasilensse, + 3-HP): 6.05
Relative mRNA level mmsadh + 3-HP (mmsadh [2]; Azotobacter vinelandii, + 3-HP): 5.87
Relative mRNA level mmsadh + 3-HP (mmsadh [2]; Beijerinckia indica, + 3-HP): 5.01
Relative mRNA level mmsadh + 3-HP (mmsadh [2]; Bordetella avium, + 3-HP): 4.98
Relative mRNA level mmsadh + 3-HP (mmsadh [2]; Bradyrhizobium japonicum, + 3-HP): 5.49
Relative mRNA level mmsadh + 3-HP (mmsadh [2]; Burkholderia ambifaria, + 3-HP): 5.13
Relative mRNA level mmsadh + 3-HP (mmsadh [2]; Castellaniella defragrans, + 3-HP): 5.98
Relative mRNA level mmsadh + 3-HP (mmsadh [2]; Catenulispora acidiphilia, + 3-HP): 5.24
Relative mRNA level mmsadh + 3-HP (mmsadh [2]; Caulobacter sp., + 3-HP): 5.96
Relative mRNA level mmsadh + 3-HP (mmsadh [2]; Chromobacterium violaceum, + 3-HP): 6.31
Relative mRNA level mmsadh + 3-HP (mmsadh [2]; Collimonas arenae, + 3-HP): 5.87
Relative mRNA level mmsadh + 3-HP (mmsadh [2]; Comamonas testosteroni, + 3-HP): 4.96
Relative mRNA level mmsadh + 3-HP (mmsadh [2]; Corynebacterium vitaeruminis, + 3-HP): 5.89
Relative mRNA level mmsadh + 3-HP (mmsadh [2]; Cupriavidus necator, + 3-HP): 6.05
Relative mRNA level mmsadh + 3-HP (mmsadh [2]; Curvibacter gracilus, + 3-HP): 3.99
Relative mRNA level mmsadh + 3-HP (mmsadh [2]; Delftia acidovorans, + 3-HP): 4.03
Relative mRNA level mmsadh + 3-HP (mmsadh [2]; Ferrimonas balearica, + 3-HP): 5.17
Relative mRNA level mmsadh + 3-HP (mmsadh [2]; Glaciecola nitratireducens, + 3-HP): 4.81
Relative mRNA level mmsadh + 3-HP (mmsadh [2]; Gordonia bronchialis, + 3-HP): 5.21
Relative mRNA level mmsadh + 3-HP (mmsadh [2]; Hahella chijuensis, + 3-HP): 5.97
Relative mRNA level mmsadh + 3-HP (mmsadh [2]; Halomonas elongata, + 3-HP): 4.34
Relative mRNA level mmsadh + 3-HP (mmsadh [2]; Hirschia litorea, + 3-HP): 4.56
Relative mRNA level mmsadh + 3-HP (mmsadh [2]; Idiomarina sp., + 3-HP): 5.43
Relative mRNA level mmsadh + 3-HP (mmsadh [2]; Janthinobacterium lividum, + 3-HP): 5.01
Relative mRNA level mmsadh + 3-HP (mmsadh [2]; Kitasatospora setae, + 3-HP): 5.25
Relative mRNA level mmsadh + 3-HP (mmsadh [2]; Kutzneria albida, + 3-HP): 5.61
Relative mRNA level mmsadh + 3-HP (mmsadh [2]; Methylobacterium sp., + 3-HP): 598
Relative mRNA level mmsadh + 3-HP (mmsadh [2]; Methylocystis sp., + 3-HP): 4.91
Relative mRNA level mmsadh + 3-HP (mmsadh [2]; Novosphingobium sp., + 3-HP): 6.04
Relative mRNA level mmsadh + 3-HP (mmsadh [2]; Oceanimonas smirnovii, + 3-HP): 4.88
Relative mRNA level mmsadh + 3-HP (mmsadh [2]; Paracoccus sp., + 3-HP): 4.96
Relative mRNA level mmsadh + 3-HP (mmsadh [2]; Parvibaculum lavamentivorans, + 3-HP): 4.99
Relative mRNA level mmsadh + 3-HP (mmsadh [2]; Phenylobacterium kunshanensis, + 3-HP): 5.02
Relative mRNA level mmsadh + 3-HP (mmsadh [2]; Photobacterium gaetbuleda, + 3-HP): 5.06
Relative mRNA level mmsadh + 3-HP (mmsadh [2]; Polynucleobacter necessarius asymbioticus, + 3-HP): 5.37
Relative mRNA level mmsadh + 3-HP (mmsadh [2]; Pseudoalteromonas carrgeenovora, + 3-HP): 5.03
Relative mRNA level mmsadh + 3-HP (mmsadh [2]; Pseudogulbenkiania sp., + 3-HP): 5.36
Relative mRNA level mmsadh + 3-HP (mmsadh [2]; Pseudomonas denitrificans ATCC13867, + 3-HP): 5.43
Relative mRNA level mmsadh + 3-HP (mmsadh [2]; Pseudomonas fluorescens, + 3-HP): 4.70
Relative mRNA level mmsadh + 3-HP (mmsadh [2]; Pseudomonas knackmussii, + 3-HP): 5.96
Relative mRNA level mmsadh + 3-HP (mmsadh [2]; Pseudomonas protegens, + 3-HP): 5.01
Relative mRNA level mmsadh + 3-HP (mmsadh [2]; Pseudoxanthomonas spadix, + 3-HP): 4.96
Relative mRNA level mmsadh + 3-HP (mmsadh [2]; Psychrobacter phenylpyruvicus, + 3-HP): 5.03
Relative mRNA level mmsadh + 3-HP (mmsadh [2]; Rhodomicrobium vannielli, + 3-HP): 6.02
Relative mRNA level mmsadh + 3-HP (mmsadh [2]; Segniliparus rotundus, + 3-HP): 4.32
Relative mRNA level mmsadh + 3-HP (mmsadh [2]; Shewanella oneidensis, + 3-HP): 4.07
Relative mRNA level mmsadh + 3-HP (mmsadh [2]; Simiduia agarovorans, + 3-HP): 4.87
Relative mRNA level mmsadh + 3-HP (mmsadh [2]; Sinorhizobium meliloti, + 3-HP): 4.07
Relative mRNA level mmsadh + 3-HP (mmsadh [2]; Sphingobium chlorophenolicum, + 3-HP): 4.86
Relative mRNA level mmsadh + 3-HP (mmsadh [2]; Sphingomonas wittichii, + 3-HP): 6.42
Relative mRNA level mmsadh + 3-HP (mmsadh [2]; Sphingopyxis alaskensis, + 3-HP): 6.94
Relative mRNA level mmsadh + 3-HP (mmsadh [2]; Stenotrophomonas maltophilia, + 3-HP): 5.21
Relative mRNA level mmsadh + 3-HP (mmsadh [2]; Streptomyces nodosus, + 3-HP): 5.14
Relative mRNA level mmsadh + 3-HP (mmsadh [2]; Tatlockia micdadei, + 3-HP): 5.65
Relative mRNA level mmsadh + 3-HP (mmsadh [2]; Thalassospira xiamenensis, + 3-HP): 6.10
Relative mRNA level mmsadh + 3-HP (mmsadh [2]; Variovorax paradoxus, + 3-HP): 4.97
Relative mRNA level mmsadh + 3-HP (mmsadh [2]; Verminephrobacter eiseniae, + 3-HP): 5.14
Relative mRNA level mmsadh + 3-HP (mmsadh [2]; Vibrio furnissii, + 3-HP): 4.91
Relative mRNA level mmsadh + 3-HP (mmsadh [2]; Xanthobacter autotrophicus, + 3-HP): 5.41
Relative mRNA level mmsadh + 3-HP (mmsadh [2]; Xanthomonas campestri, + 3-HP): 5.09
increase of expression of mmsadh by 3-HP (mmsadh [2]; in the microorganisms (Table 7), 25 mM 3-HP in nutrient medium): 16 fold
fold increase of 3hibdhIV mRNA expression (3hibdhIV; [4]): 146 fold
3hibdhIV expression on addition of 3-HP (3hibdhIV; [5]): did not increase the expression
fold increase of mmsadh mRNA expression (mmsadh [3]; [4]): 137 fold
mmsadh expression on addition of 3-HP (mmsadh [3]; [5]): did not increase the expression
